Laboratory results: patent publication US7736537B1, “Replacement solvents having improved properties for refrigeration flushes” (Mainstream Engineering Corp., priority 2008, dated 2010)
Where two headings read alike, the source gives them in different places.

Tests used:
[1] = pure solvent; cited from earlier work
[2] = cited from earlier work; for BP: Table 1
[3] = solubility parameter, Table 1; cited from earlier work
[4] = From the text: Parameters such as the lethal dose 50 (LD50), lethal concentration 50 (LC50), cardiac sensitization, skin irritation, and mutagenicity (e.g., via the Ames test) can be used as toxicity metrics. The LDn or LCn abbreviations, where n is the percent lethality, are used for the dose of a toxicant lethal to n % of a test population. […] Cardiac sensitization is a measure of the ability of a compound to cause cardiac arrhythmia under stress.
The property modification components are chosen from a list of potential replacement solvents. These compounds included halogenated compounds such as halogenated acetates, alcohols, alkanes, cycloalkanes, alkenes, cycloalkenes, amines, anhydrides, aromatics, carbonyls, diones, esters, ethers, heterocyclics and ketones.

[5] = Test 3 - Acid retention (titration before and after concentrated HCl); assay type: physicochemical
Description: In order to measure the ability of each solvent to absorb acid, a titration of each solvent before and after concentrated HCl addition was performed. The difference between how much titrant was needed to neutralize the solvent after the addition of acid and the amount of titrant needed to neutralize the initial solvent was a simple way to determine how much acid was absorbed by each solvent. Mixture A advantageously absorbed more mineral acid than any of the three comparative solvents.

[6] = Test 4 - Oil retention (oil saturation point); assay type: physicochemical; conditions: oil added to 4.5 g solvent until phase separation
Description: An oil absorption test was performed on Mixtures A, B, C, D and the three comparative solvents to see if there was a saturation point associated with any of the solvents. A 4.5 g sample of each solvent was put into a vial and oil was added to each until a phase separation or other noticeable fluid property change took place. […]. Rx-11 and oil phase separated after 0.45 g, or 10 mass % of oil were added.

[7] = Test 2 - Moisture retention (Karl Fischer titration); assay type: physicochemical
Description: Each solvent (5 g) was put into a small vial and the individual samples were titrated with a Karl Fischer titration machine to evaluate how much moisture was contained in each. De-ionized water (1 g) was then added to each vial, which ensured that each sample was saturated with moisture. The samples were then agitated and allowed to phase separate. Karl Fischer analysis of the organic layer of each solvent was performed after phase separation was complete.
The difference between the saturated moisture percent and the starting sample moisture percent is the amount that was absorbed by the solvent.

[8] = cardiac sensitization relative to CFC-113

Row | SMILES | BP [2] | SP [3] | CS/CS113 [4, 8] | other results
1 | CC(C)CBr [1-bromo-2-methylpropane] |  |  |  | flash point [1]: 11 °C
2 | FC(F)(F)O/C=C\OC(F)(F)Br [(Z)-1-(bromodifluoromethoxy)-2-(trifluoromethoxy)ethene] | 76.5 C. | 7.79 (cal/cm^3)^1/2 | 144.9 | 
3 | FC(F)(F)/C=C\OC(F)(F)Br [(Z)-1-(bromodifluoromethoxy)-2-(trifluoromethyl)ethene] | 57.8 C. | 7.63 (cal/cm^3)^1/2 | 54.3 | 
4 | FC(F)(F)/C=C\C(F)(F)Br [(Z)-1-bromo-1,1,4,4,4-pentafluoro-2-butene] | 40.0 C. | 7.25 (cal/cm^3)^1/2 | 36.6 | 
5 | F/C(Br)=C(/F)OCC(F)(F)F [(Z)-1-bromo-1,2-difluoro-2-(2,2,2-trifluoroethoxy)-ethene] | 87.9 C. | 7.61 (cal/cm^3)^1/2 | 52.7 | 
6 | F/C(=C(\F)C(F)(F)Br)C(F)(F)F [(Z)-1-bromo-perfluoro-2-butene] | 48.0 C. | 6.78 (cal/cm^3)^1/2 | 41.4 | 
7 | F/C(=C(\Br)C(F)(F)F)C(F)(F)F [(Z)-2-bromo-1,1,1,3,4,4,4-heptafluoro-2-butene] | 49.0 C. | 6.79 (cal/cm^3)^1/2 | 48.6 | 
8 | Fc1c(F)c(F)c(C(F)(F)Br)c(F)c1F [(bromodifluoromethyl)-pentafluorobenzene] | 153.3 C. | 7.63 (cal/cm^3)^1/2 | 28.2 | 
9 | FC(Cl)(Cl)Cl [CFC-11, trichlorofluoromethane] |  |  |  | boiling point [2]: 47.6 °C; Acid Number after acid ([5]; after concentrated HCl addition): 18 mg/L; Acid Number before acid ([5]; before concentrated HCl addition): 9 mg/L; Acid Absorbed ([5]; difference after minus before acid): 9 mg/L; saturation point for oil [6]: no saturation point; Saturated % ([7]; moisture in organic layer after 1 g water added to 5 g solvent): 0.007%; Starting % ([7]; moisture in solvent before water addition): 0.000%
10 | CCO [Ethanol, ethanol] |  |  |  | flash point [1]: 55 ° F.
11 | FC(F)(F)COCC(F)(F)F [bis(2,2,2-trifluoroethyl)ether] | 62.5 C. | 7.32 (cal/cm^3)^1/2 | 109.2 | 
12 | FC(F)OC(F)(F)C(F)(F)OC(F)F [bis(difluoromethoxy)-tetrafluoroethane] | 58.0 C. | 7.50 (cal/cm^3)^1/2 | 362.3 | 
13 | C=C(C)[C@H]1CC=C(C)CC1 [d-limonene] |  |  |  | flash point [1]: around 120 ° F.
14 | COCC(C)OCC(C)OC (stereo not drawn) [dipropyleneglycol dimethylether] |  |  |  | flash point [1]: 149 ° F.
15 | CCOC(F)(F)C(F)(F)C(F)(F)C(F)(F)F [ethyl-perfluorobutyl ether] | 73.0 C. | 6.85 (cal/cm^3)^1/2 | 69.0 | 
16 | FCOC(C(F)(F)F)C(F)(F)F [fluoromethyl 2,2,2-trifluoro-1-(trifluoromethyl)ethyl ether, reference compound] | 59.0 C. | 7.10 (cal/cm^3)^1/2 | 103.0 | 
17 | FC(OC(F)(F)C(F)(F)C(F)(F)F)C(F)(F)F (stereo not drawn) [heptafluoropropyl 1,2,2,2-tetrafluoroethyl ether] | 41.0 C. | 6.62 (cal/cm^3)^1/2 | 195.7 | 
18 | CC(C)O [isopropyl alcohol] |  |  |  | flash point [1]: 54 ° F.
19 | COC(C(F)(F)F)C(F)(F)F [methyl 2,2,2-trifluroethyl-1-(trifluoromethyl)ether] | 50.8 C. | 7.26 (cal/cm^3)^1/2 | 107.3 | 
20 | CC(=O)C(F)(F)C(F)(F)C(F)(F)F [methyl heptafluoropropyl ketone] | 63.5 C. | 7.32 (cal/cm^3)^1/2 | 25.4 | 
21 | COC(=O)C(F)(F)C(F)(F)F [methyl pentafluoropropanoate] | 59.5 C. | 7.77 (cal/cm^3)^1/2 | 27.0 | 
22 | COC(F)(F)C(F)(F)C(F)(F)C(F)(F)F [methyl perfluorobutyl ether] | 51.0 C. | 6.75 (cal/cm^3)^1/2 | 53.5 | 
23 | FC(F)(F)C(F)(F)C(F)(F)C(F)(F)C1(F)OC(F)(F)C(F)(F)C1(F)F (stereo not drawn) [perfluoro-2-butyltetrahydrofuran] | 103.0 C. | 6.94 (cal/cm^3)^1/2 | 65.4 | 
24 | FC(F)(F)C(F)(F)C(F)(F)C(F)(F)OC(F)(F)C(F)(F)C(F)(F)C(F)(F)F [perfluorodibutyl ether] | 110.1 C. | 6.65 (cal/cm^3)^1/2 | 896.2 | 
25 | Fc1c(F)c(F)c(C(F)(F)F)c(F)c1F [perfluorotoluene] | 104.0 C. | 7.70 (cal/cm^3)^1/2 | 64.0 | 
26 | O=C(OC(=O)C(F)(F)F)C(F)(F)F [trifluoroacetic anhydride] | 40.2 C. | 7.29 (cal/cm^3)^1/2 |  | CS/CS113 [4]: 236.9
